# From publication PMC8058733, “A pain killer without analgesic tolerance designed by co-targeting PSD-95-nNOS interaction and α2-containning GABAARs” (Theranostics, 2021)
# Tests used:
# motor coordination = assay: Rotarod test, motor coordination; type: in vivo; conditions: rats, 30 min after injection, ZL006-05 60 mg/kg, i.v., diazepam 0.5 mg/kg
# [1] = system: basic pain threshold under normal conditions; assay: Mechanical nociceptive thresholds in normal rats; type: in vivo, rat; conditions: ZL006-05 90 mg/kg/d, i.g., × 11 d, 2 h after administration
# Description: For rats, the threshold for 50% paw withdrawal (50% PWT) response to mechanical stimulus was assessed through a dynamic plantar apparatus (Ugo Basile, Italy). The 50% PWT refers to that the probability of paw withdrawal response to repeated mechanical stimulus is 50%. Rats were placed individually in a plastic cage (17 × 15 × 15 cm) with a wire mesh bottom which allowed full access to the paws. Behavioral accommodation was allowed for 15-20 min until cage exploration and major grooming activities ceased. A maximal cut-off of 50g/50s was set to prevent tissue damage. To record the PWT in response to mechanical stimulus, each rat was measured five times with a 5-min interval, and the mean value was recorded after excluding maximal and minimum values. The experimental procedures were performed in a double-blind manner.
# [2] = system: CFA-induced inflammatory pain; assay: CFA-induced inflammatory pain, paw withdrawal threshold; type: in vivo; conditions: mice, ZL006-05 60 mg/kg, i.g., given 24 h after CFA injection
# Description: For mice, the threshold for 50% PWT response to mechanical stimulus was quantified by assessing the paw withdrawal threshold using von Frey filaments (Touch-Test TM Sensory Evaluator, North coast Medical, Inc.). Mice were placed individually in a plastic cage (4.5 × 5 × 11 cm) with a wire mesh bottom which allowed full access to the paws. Behavioral accommodation was allowed for 20-30 min until cage exploration and major grooming activities ceased. Mechanical threshold was measured by applying a von Frey filament to the ventral surface of the right hind paw until a positive sign of pain behavior was elicited. The paradigm for assessing the threshold was as follows. Von Frey filaments with logarithmically incremental stiffness (0.02-2 g) were applied serially to the paw by the up-down method. […]
# (A) Time course of SNL-induced thermal hyperalgesia after treating with ZL006-05 (60 mg/kg, i.g.) in mice. Paw withdrawal latency response to thermal stimulation was detected at 0, 1, 2, 4, 6, 8, 10, 12 and 24 h after drug administration. ( B) Areas under the curve of paw withdrawal latency 0-24 h after treatment calculated from ( A) (F (1,16) = 43.07, ***p < 0.001, two-tailed t-test, n = 9). […] (E) Areas under the curve of paw withdrawal latency 0-24 h after treatment calculated from (D) (F (1,18) = 71.73, ***p <0.001, two-tailed t-test, n = 10). […]
# [3] = Identification of metabolites of ZL006-05 in plasma (UPLC-UV/Q-TOF MS); type: in vivo; conditions: rats
# Description: ZL006-05 was given to rats by intravenous injection (i.v., 6.0 mg/kg) and oral administration (i.g., 90 mg/kg) respectively. Plasma samples were collected at pre-dose and 0.25, 0.5, 2 and 4 h for i.v. and 0.5, 1, 2 and 4 h for i.g after a single dose administration. Pre-dose plasma samples were used as control blank. After vortex and centrifugation, supernatant was removed and dried out by nitrogen blowing instrument at 40 °C and then re-dissolved with 100 μL water/ACN (50/50, v/v). The resulting samples were injected and analyzed by UPLC-UV/Q-TOF MS. Metabolites were separated with ACQUITY UPLC HSS T3 C18 column (2.1 × 100 mm I.D., 1.7 µm I.D.) with column temperature at 45 °C and flow rate at 0.4 mL/min, detected by UV (200-600 nm). Masslynx V4.1 of Waters was used for data acquiring, MetaboLynx XS with Masslynx V4.1 was used for data analysis.
# Supplementary Figure 3. Proposed metabolic pathways of ZL006-05 in rats. […]
# of ZL006-05, including M2-2 (glucuronide conjunction), M3-2 (Mono-oxidation & […]
# parent drug were found in plasma after oral administration of ZL006-05, including M1 (Oxidation by de-H2), M2-1 and M2-2 (glucuronide conjunction), M3-1 and M3-2 (Mono-oxidation & glucuronide conjunction). Based on the chromatogram of UPLC- […]
# oral dosing, the proposed metabolic pathways of ZL006-05 in blood were summarized. i.v.: intravenous injection; i.g.: oral administration.
# (1 picture or pasted object on this page, not shown here)
smiles,measurement,setting,value
CC1(C)C2CCC1(C)C(OC(=O)c1ccc(NCc3cc(Cl)cc(Cl)c3O)cc1O)C2 (stereo not shown) [ZL006-05],"Motor coordination, time spent on the accelerating rotarod",motor coordination,had no effect
same,Basic mechanical nociceptive threshold,[1],did not change the basic threshold
same,Effect on CFA-induced inflammatory pain,[2],reduced
same,Metabolites found in plasma,"[3]; after intravenous injection: M2-2, M3-2, M4",Three metabolites except parent drug
same,Main metabolite in plasma (UPLC-UV),"[3]; after iv dosing, 6.0 mg/kg",parent drug (M0)
same,Metabolites found in plasma,"[3]; after oral administration: M1, M2-1, M2-2, M3-1, M3-2",five metabolites
same,Main metabolite in plasma (UPLC-UV),"[3]; after oral dosing, 90 mg/kg",parent drug (M0) and glucuronide conjunction (M2-2)
